Laboratory results: ChEMBL document CHEMBL1144662, “Requirement of beta-alanine components in sequence-specific DNA alkylation by pyrrole-imidazole conjugates with seven-base pair recognition” (Bioorg Med Chem, 2008)
Activity calls are given as the source filed them. No cut-off for these calls is given here.

Tests used:
[1] = Alkylation of plasmid DNA at 5'-AGCTCCA-3' site in 5'-Texas Red labeled 202-bp DNA fragment after 15 hrs
[2] = Alkylation of plasmid DNA at 5'-AGCACCA-3' site in 5'-Texas Red labeled 202-bp DNA fragment after 15 hrs
[3] = Alkylation of plasmid DNA at 5'-ACTACCA-3' site in 5'-Texas Red labeled 202-bp DNA fragment after 15 hrs
[4] = Alkylation of plasmid DNA at 5'-ACAACCA-3' site in 5'-Texas Red labeled 202-bp DNA fragment after 15 hrs
[5] = Alkylation of plasmid DNA in 5'-Texas Red labeled 202-bp DNA fragment upto 5 uM after 15 hrs

Activity [1]	Activity [2]	Activity [3]	Activity [4]	Activity [5]	Compound
Active	Active	–	–	–	CC(=O)Nc1cn(C)c(C(=O)Nc2cn(C)c(C(=O)NCCC(=O)Nc3cn(C)c(C(=O)Nc4cc(C(=O)NCCCC(=O)Nc5cn(C)c(C(=O)Nc6cc(C(=O)NCCC(=O)Nc7ccc8[nH]c(C(=O)N9CC(CCl)c%10c9cc(O)c9ccccc%109)cc8c7)n(C)c6)n5)n(C)c4)n3)n2)n1 (stereo unspecified)
–	–	Active	Active	–	CC(=O)Nc1cn(C)c(C(=O)Nc2cn(C)c(C(=O)Nc3cc(C(=O)NCCC(=O)Nc4cn(C)c(C(=O)NCCCC(=O)Nc5cc(C(=O)Nc6cc(C(=O)Nc7cc(C(=O)Nc8ccc9[nH]c(C(=O)N%10CC(CCl)c%11c%10cc(O)c%10ccccc%11%10)cc9c8)n(C)c7)n(C)c6)n(C)c5)n4)n(C)c3)n2)n1 (stereo unspecified)
–	–	Active	Active	–	CC(=O)Nc1cn(C)c(C(=O)Nc2cn(C)c(C(=O)Nc3cc(C(=O)Nc4cc(C(=O)Nc5cn(C)c(C(=O)NCCCC(=O)Nc6cc(C(=O)Nc7cc(C(=O)Nc8cc(C(=O)Nc9ccc%10[nH]c(C(=O)N%11CC(CCl)c%12c%11cc(O)c%11ccccc%12%11)cc%10c9)n(C)c8)n(C)c7)n(C)c6)n5)n(C)c4)n(C)c3)n2)n1 (stereo unspecified)
Active	Active	–	–	–	CC(=O)Nc1cn(C)c(C(=O)Nc2cn(C)c(C(=O)NCCC(=O)Nc3cn(C)c(C(=O)Nc4cc(C(=O)NCCCC(=O)Nc5cn(C)c(C(=O)Nc6cc(C(=O)Nc7cc(C(=O)Nc8ccc9[nH]c(C(=O)N%10CC(CCl)c%11c%10cc(O)c%10ccccc%11%10)cc9c8)n(C)c7)n(C)c6)n5)n(C)c4)n3)n2)n1 (stereo unspecified)
–	–	–	–	inactive	CC(=O)Nc1cn(C)c(C(=O)Nc2cn(C)c(C(=O)Nc3cc(C(=O)Nc4cn(C)c(C(=O)Nc5cc(C(=O)NCCCC(=O)Nc6cn(C)c(C(=O)Nc7cc(C(=O)NCCC(=O)Nc8ccc9[nH]c(C(=O)N%10CC(CCl)c%11c%10cc(O)c%10ccccc%11%10)cc9c8)n(C)c7)n6)n(C)c5)n4)n(C)c3)n2)n1 (stereo unspecified)
–	–	Active	Active	–	CC(=O)Nc1cn(C)c(C(=O)Nc2cn(C)c(C(=O)Nc3cc(C(=O)NCCC(=O)Nc4cn(C)c(C(=O)NCCCC(=O)Nc5cc(C(=O)NCCC(=O)Nc6cc(C(=O)Nc7ccc8[nH]c(C(=O)N9CC(CCl)c%10c9cc(O)c9ccccc%109)cc8c7)n(C)c6)n(C)c5)n4)n(C)c3)n2)n1 (stereo unspecified)
